In ChEMBL document CHEMBL1148513, “Synthetic studies of neoclerodane diterpenes from Salvia divinorum: selective modification of the furan ring” (Bioorg Med Chem Lett, 2006):
pKi: −log10 of the molar value.

Assays:
Mu-type opioid receptor = Mu-type opioid receptor (Homo sapiens, UniProt P35372); test: Displacement of [125I]IOXY from human mu opioid receptor
[1] = target: Delta-type opioid receptor (Homo sapiens, UniProt P41143); test: Displacement of [125I]IOXY from human delta opioid receptor
[2] = target: T1, Kappa-type opioid receptor (Homo sapiens, UniProt P41145); test: Displacement of [125I]IOXY from human kappa opioid receptor
T1 sequence (P41145 whole entry): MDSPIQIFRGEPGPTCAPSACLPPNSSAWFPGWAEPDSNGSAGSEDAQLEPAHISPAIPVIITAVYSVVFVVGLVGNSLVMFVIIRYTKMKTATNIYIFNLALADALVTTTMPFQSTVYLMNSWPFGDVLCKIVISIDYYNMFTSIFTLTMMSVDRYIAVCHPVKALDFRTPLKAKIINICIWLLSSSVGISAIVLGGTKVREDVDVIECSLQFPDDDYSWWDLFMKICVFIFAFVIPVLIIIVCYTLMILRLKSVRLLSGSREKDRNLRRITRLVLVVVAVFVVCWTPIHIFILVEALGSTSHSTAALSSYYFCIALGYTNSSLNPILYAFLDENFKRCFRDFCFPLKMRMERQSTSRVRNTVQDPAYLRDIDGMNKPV

[3] = target: T1, Kappa-type opioid receptor; test: Agonist activity at human kappa opioid receptor stably transfected in CHO cells by [35S]GTP-gamma-S assay; type: functional, cell-based
[4] = target: T1, Kappa-type opioid receptor; test: Agonist activity at human kappa opioid receptor stably transfected in CHO cells by [35S]GTPgammaS assay relative to (-)-U50488; type: functional, cell-based

Chain of Delta-type opioid receptor (P41143 whole entry): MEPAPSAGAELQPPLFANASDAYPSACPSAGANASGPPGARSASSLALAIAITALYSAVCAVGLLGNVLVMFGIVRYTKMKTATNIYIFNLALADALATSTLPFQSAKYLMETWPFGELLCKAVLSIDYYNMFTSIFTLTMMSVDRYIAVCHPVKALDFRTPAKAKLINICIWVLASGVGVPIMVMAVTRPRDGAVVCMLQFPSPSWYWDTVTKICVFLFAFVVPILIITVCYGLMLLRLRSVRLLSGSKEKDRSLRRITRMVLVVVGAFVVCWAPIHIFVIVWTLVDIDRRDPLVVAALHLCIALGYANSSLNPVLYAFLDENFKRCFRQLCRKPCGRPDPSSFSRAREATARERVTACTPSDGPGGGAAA
Chain of Mu-type opioid receptor (P35372 whole entry): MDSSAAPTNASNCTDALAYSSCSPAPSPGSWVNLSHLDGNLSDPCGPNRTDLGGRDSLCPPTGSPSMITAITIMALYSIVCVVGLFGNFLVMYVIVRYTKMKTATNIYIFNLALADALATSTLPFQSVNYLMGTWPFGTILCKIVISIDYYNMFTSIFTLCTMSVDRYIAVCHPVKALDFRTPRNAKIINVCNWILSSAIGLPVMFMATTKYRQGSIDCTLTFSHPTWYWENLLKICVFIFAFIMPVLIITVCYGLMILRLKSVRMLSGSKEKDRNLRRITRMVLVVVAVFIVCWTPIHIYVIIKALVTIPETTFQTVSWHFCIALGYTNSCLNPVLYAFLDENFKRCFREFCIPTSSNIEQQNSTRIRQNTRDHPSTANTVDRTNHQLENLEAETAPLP

| Structure (SMILES) | pKi (Mu-type opioid receptor) | pKi [1] | pKi [2] | ED50 [3] [µM] | Emax [4] [%] |
| --- | --- | --- | --- | --- | --- |
| COC(=O)[C@@H]1C[C@H](OC(C)=O)C(=O)[C@H]2[C@@]1(C)CC[C@H]1C(=O)O[C@H](c3ccn(S(=O)(=O)c4ccccc4)c3)C[C@]21C | < 5.00 | < 5.00 | 6.39 | 9.16 | 60 |
| COC(=O)c1coc([C@@H]2C[C@]3(C)[C@H]4C(=O)[C@@H](OC(C)=O)C[C@@H](C(=O)OC)[C@]4(C)CC[C@H]3C(=O)O2)n1 | < 5.00 | < 5.00 | 5.07 | – | – |
| COC(=O)[C@@H]1C[C@H](OC(C)=O)C(=O)[C@H]2[C@@]1(C)CC[C@H]1C(=O)O[C@H](c3ccn(S(=O)(=O)c4ccc(OC)cc4)c3)C[C@]21C | < 5.00 | < 5.00 | 5.79 | 15.2 | 60 |
| COC(=O)[C@@H]1C[C@H](OC(C)=O)C(=O)[C@H]2[C@@]1(C)CC[C@H]1C(=O)O[C@H](c3ccn(S(C)(=O)=O)c3)C[C@]21C | < 5.00 | < 5.00 | 6.08 | 3.6 | 70 |
